The test system of data set [1] is murine leukemia L1210 cells. Kind of data set: Cytotoxicity to murine leukemia L1210 cells. Type of data set: cell-based. The settings on record: Mus musculus, incubated 24 and 48 hr, cells counted in a Coulter counter, read-out: inhibits the proliferation of L1210 cells by 50% (IC50). The procedure: 1. Cytoxicity of 5-(β-D-ribofuranosyl)nicotinamide-(5'-5")-adenosine pyrophosphate (Compound 2, CNAD) to murine leukemia L1210 cells.
Murine leukemia L1210 cells were grown in RPMI 1640 medium. Logarithmically growing cells were incubated with various concentrations of CNAD for 24 and 48 hr periods and the cytoxicity determined by counting the cells in a Coulter counter.

Data set [2] deals with T1, horse liver alcohol dehydrogenase (ADH) (Equus caballus, UniProt P00327).
T1 construct: horse liver alcohol dehydrogenase (ADH); from tissue; host or cells: horse liver
T1 sequence (P00327 whole entry): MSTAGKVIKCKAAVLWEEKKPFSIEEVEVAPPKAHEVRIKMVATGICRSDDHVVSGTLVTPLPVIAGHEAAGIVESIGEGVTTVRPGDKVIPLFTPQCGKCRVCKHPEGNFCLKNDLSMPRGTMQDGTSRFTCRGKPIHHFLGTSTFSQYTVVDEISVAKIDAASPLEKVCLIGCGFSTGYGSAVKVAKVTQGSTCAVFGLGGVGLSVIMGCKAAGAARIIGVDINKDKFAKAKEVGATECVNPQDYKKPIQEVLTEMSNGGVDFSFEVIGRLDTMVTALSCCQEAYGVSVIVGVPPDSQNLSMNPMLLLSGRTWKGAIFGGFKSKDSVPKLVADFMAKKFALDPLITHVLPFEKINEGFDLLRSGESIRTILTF
The experiment in a line: Inhibition of horse liver alcohol dehydrogenase (ADH), NADH absorbance at 340 nm. The note with it: for Ki: pH 8.0. Type of data set: biochemical. The procedure: 2. Inhibition of horse liver alcohol dehydrogenase (ADH) and bovine glutamate dehydrogenase (GDH) Rate measurements for each of the dehydrogenases used in this study are based on the spectral properties of NADH. […] Rates, using absorbance measurements, were calculated using a millimolar extinction coefficient of 6.22/cm for NADH. Alcohol dehydrogenase assays were run at pH 8.0, using 0.1M sodium phosphate buffer. […] All kinetic assays were run at least in duplicate. Initial values of inhibition constants were estimated from Lineweaver-Burk plots, using linear regression to obtain values for the slope and intercept of each line. Inhibition was judged to be competitive if the values obtained for the intercepts of the appropriate polots differed by less than three standard deviations as determined by linear regression. Values for the inhibition constant, Kis was obtained using the relationship: […] where S(+) and S(-) are the slopes of the plots in the presence and absence of inhibitor, respectively, and [I] is the concentration of total added inhibitor. Where a noncompetitive pattern of inhibition was observed, a similar analysis was used to obtain Kii. Km for conenzyme was obtained from the slope and intercept obtained in plots in the absence of inhibitor, using the relationship: Km =[…]. Values of effective inhibition constants and patterns of inhibition for CNAD binding to ADH were obtained by direct least-squares fits to the nonreciprocal forms of the Michaelis-Menten rate equations. Kinetic data were fit to the following relationships, assuming both competitive and noncompetitive inhibition respectively: vo =[…]]} vo =[…] vo is the initial reaction rate, Vm is the maximal rate, and Km and [A] the Michaelis constant and concentration of the variable substrate, respectively. The pattern of inhibition considered to best account for the observed data was that giving both the smallest residuals between observed and calculated values, and the smallest standard errors in the computed kinetics constants. […] Derivation of this rate equation assumes the presence of a tight binding inhibitor, i.e., that [I]~[E]. In this experiment both inhibitor and enzyme concentration were varied. Initial rates vo were measured at total concentrations of CNAD ([I]) of 0, 2.4, 9.6, and 19.2 nM over four concentrations of ADH ([E]). Concentrations of ethanol and NAD were fixed at 1.2 […] and 87 μM at pH 8.0. The apparent inhibition constant with respect to NAD, Ki', was then obtained by non-linear least-squares fit to the rate equation under the array of experimental conditions employed. The true rate constant Ki was obtained from the apparent rate constant Ki was obtained from the apparent rate constant Ki, via the relationship: […]

Data set [3] deals with bovine glutamate dehydrogenase (GDH) (Bos taurus, UniProt P00366). The experiment in a line: Inhibition of bovine glutamate dehydrogenase (GDH). In kind it is biochemical. How it is done:
2. Inhibition of horse liver alcohol dehydrogenase (ADH) and bovine glutamate dehydrogenase (GDH)
Rate measurements for each of the dehydrogenases used in this study are based on the spectral properties of NADH. In assays with NAD as a substrate, rates were determined by measuring the increase in absorbance at 340 nm resulting from the conversion of NAD to NADH. Rates, using absorbance measurements, were calculated using a millimolar extinction coefficient of 6.22/cm for NADH.
Alcohol dehydrogenase assays were run at pH 8.0, using 0.1M sodium phosphate buffer. Glutamate dehydrogenase assays were at pH 7.0 in 0.1M sodium phosphate buffer, containing 10 μm EDTA. All kinetic assays were run at least in duplicate.
Initial values of inhibition constants were estimated from Lineweaver-Burk plots, using linear regression to obtain values for the slope and intercept of each line. Inhibition was judged to be competitive if the values obtained for the intercepts of the appropriate polots differed by less than three standard deviations as determined by linear regression. Values for the inhibition constant, Kis was obtained using the relationship:
where S(+) and S(-) are the slopes of the plots in the presence and absence of inhibitor, respectively, and [I] is the concentration of total added inhibitor. […]

The test system of data set [4] is inosine monophosphate dehydrogenase (IMPDH). Kind of data set: Inhibition of inosine monophosphate dehydrogenase by the NAD analog. Type of data set: biochemical.
In data set [5] the test system is lactate dehydrogenase (LDH). Kind of data set: Inhibition of lactate dehydrogenase by the NAD analog. In kind it is biochemical.
Data set [6] has as its system malate dehydrogenase (MDH). The experiment in a line: Inhibition of malate dehydrogenase by the NAD analog. Type of data set: biochemical.
Another data set addresses T2, Human IMPDH type II (Homo sapiens, UniProt P12268).
T2 construct: Dr. George D. Markham, Institute for Cancer Research, Fox Chase Cancer Center, Fox Chase, Pa
Kind of data set: Inhibition of human IMPDH type II by TAD analogues. Type of data set: biochemical. How it is done: Purified human recombinant IMPDH-II was obtained from Dr. George D. Markham of the Institute for Cancer Research, Fox Chase Cancer Center, Fox Chase, Pa. Horse liver ADH was obtained in crystalline form from Boehringer Mannheim Biochemicals, Indianapolis. β-Nicotinamide adenine dinucleotide (NAD) in crystalline free acid form was also obtained from Boehringer. Inosine 5'-monophosphate (IMP) was purchased from Sigma Chemical Co., St. Louis as the disodium salt. All solutions were prepared using nano-pure water.
Kinetic constants of the inhibitors with respect to NAD were obtained by monitoring spectrophotometrically the rate of production of NADH during the reaction.
Human IMPDH type II was stored at -70° C. in buffer containing 20 mM KCl, 1 mM EDTA, 1 mM DTT and 20 mM Tris-HCl adjusted to pH 8 at 23° C. In preparation for the assays, a frozen aliquot was thawed rapidly and filtered through a 0.45 μm acetate filter. Protein concentration was determined from a Coomassie Assay. In some cases the enzyme was diluted 4:1 in similar 20 mM Tris buffer. NAD and IMP solutions were prepared based on molecular weight.
Combination of the reactants was performed as follows: An aliquot of substrate solution was pipetted down one side of a cuvet, one of co-factor down another side, and inhibitor down a third. The volume was brought to 990 μL with reaction buffer and the cuvet was agitated. This mixture was allowed to incubate in the spectrophotometer sample holder for five minutes before the reaction was started, the temperature held at 37° C. by a circulating water bath. The reaction was initiated by the introduction of 10 μL of enzyme solution on a mixing plunger, and NADH production was monitored for between two and 10 minutes, depending on the activity of the protein solution.
The uninhibited rate of reaction as a function of cofactor concentration was first established. Velocities at four NAD concentrations and saturating substrate concentrations were measured and Km for NAD obtained. Inhibitor was then introduced to the reaction mixture with an NAD concentration in the vicinity of Km.
Lineweaver-Burk plots were used to assess the quality of the data and to initially characterize the mode of inhibition with respect to NAD. […] Consequently, values of kii (intercept) and kis (slope) reported in Table I were obtained from direct least squares fits to the expression:
where vo is the measured initial rate, Vm is the maximum rate, Km is the Michaelis constant of NAD, and [A] is concentration of NAD.

For data set [7], the target named is T3, horse liver alcohol dehydrogenase (LADH) (Equus caballus, UniProt P00327).
T3 construct: Horse liver ADH was obtained in crystalline form; purchased Boehringer Mannheim Biochemicals, Indianapolis; host or cells: horse liver
T3 sequence (P00327 whole entry): as above
The experiment in a line: Preliminary assays of horse liver alcohol dehydrogenase (LADH) inhibition. In kind it is biochemical. The note with it: ethanol 1.2 mM, pH 8, read-out: level of inhibition of horse liver alcohol dehydrogenase (LADH). How it is done:
Purified human recombinant IMPDH-II was obtained from Dr. George D. Markham of the Institute for Cancer Research, Fox Chase Cancer Center, Fox Chase, Pa. Horse liver ADH was obtained in crystalline form from Boehringer Mannheim Biochemicals, Indianapolis. β-Nicotinamide adenine dinucleotide (NAD) in crystalline free acid form was also obtained from Boehringer. Inosine 5'-monophosphate (IMP) was purchased from Sigma Chemical Co., St. Louis as the disodium salt. All solutions were prepared using nano-pure water. Kinetic constants of the inhibitors with respect to NAD were obtained by monitoring spectrophotometrically the rate of production of NADH during the reaction. The course of the reaction was followed by measuring the changing absorbance of the reaction mixture at 340 nm, the absorbance peak for NADH, using a Beckman DU-65 spectrophotometer, and an extinction of 6.22 A mM^-1 cm^-1 for the reduced cofactor.(51) Preliminary assays of alcohol dehydrogenase were performed in a similar manner to that described above. LADH in crystalline suspension was spun down to a pellet and dissolved in 100 mM Tris-HCl buffer containing 100 mM KCl adjusted to pH 8 at 23° C. Stock solutions of NAD and ethanol were prepared in buffer based on molecular weight and volume, respectively. Ethanol was introduced as an aliquot of stock solution and its concentration was kept constant at 1.2 mM while NAD concentration was varied by serial dilution of the stock solution.

The subject of another data set is cell membranes. The settings on record: compared with tiazofurin; personal communication (ref. 35); cited from earlier work.
Where [8] appears, read: IMPDH type II, read-out: Kis (binding).
Setting [9] is: NAD variable substrate, IMP constant at 100 μM, non-competitive, 37° C., read-out: Kii.
Setting [10] is: NAD variable substrate, IMP constant at 100 μM, non-competitive, 37° C., read-out: Kis.

Like-named read-outs stand apart in the source and are kept apart here. Where only a bound is given, the exact number is not on record here.

bovine glutamate dehydrogenase (GDH), sequence (P00366 58-558): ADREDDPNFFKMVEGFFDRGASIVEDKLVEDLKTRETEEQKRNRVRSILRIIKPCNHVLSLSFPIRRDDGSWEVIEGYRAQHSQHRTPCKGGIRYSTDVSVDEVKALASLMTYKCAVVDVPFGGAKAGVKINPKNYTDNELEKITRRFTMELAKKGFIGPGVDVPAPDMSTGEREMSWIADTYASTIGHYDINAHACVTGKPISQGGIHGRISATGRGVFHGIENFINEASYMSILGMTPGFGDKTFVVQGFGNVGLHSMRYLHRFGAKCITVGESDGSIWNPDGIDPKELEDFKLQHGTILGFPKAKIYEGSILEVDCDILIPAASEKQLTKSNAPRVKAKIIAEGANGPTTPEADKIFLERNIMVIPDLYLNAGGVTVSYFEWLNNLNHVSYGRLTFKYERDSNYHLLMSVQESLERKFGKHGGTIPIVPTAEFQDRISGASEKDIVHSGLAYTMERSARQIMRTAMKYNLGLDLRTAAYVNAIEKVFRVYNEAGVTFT

With `NC(=O)c1cncc([C@@H]2O[C@H](COP(=O)(O)OP(=O)(O)OC[C@H]3O[C@@H](n4cnc5c(N)ncnc54)[C@H](O)[C@@H]3O)[C@@H](O)[C@H]2O)c1` [CNAD, 5-(β-D-ribofuranosyl)nicotinamide-(5'-5")-adenosine pyrophosphate], the IC50 in data set [1] was found to be 7 µM. For the same molecule, in data set [2], the “inhibitory activity against alcohol dehydrogenase from horse liver (in words)” value was “highly potent and selective inhibitory activity”. In addition, in data set [2], the “pattern of inhibition of ADH with respect to NAD” value is reported as “non-competitive”. For the same molecule, the Ki in [2] (direct least-squares fit to Michaelis-Menten rate equations, read-out: apparent Ki (Ki') with respect to NAD) worked out at 0.006 µM; in [2] (non-competitive, with respect to NAD, read-out: Ki, inhibition of ADH) it was 0.002 µM; in [3] (competitive, pH 7.0), 15 µM. In addition, the “pattern of inhibition of GDH with respect to NAD” value in data set [3] is “competitive”. The “pattern of inhibition of IMPDH with respect to NAD” value in data set [4] is “competitive”. Further, in data set [5], the “pattern of inhibition of LDH with respect to NAD” value is on record as “competitive”. Besides, in data set [6], the “pattern of inhibition of MDH with respect to NAD” value is “competitive”.

Take `NC(=O)c1csc([C@@H]2O[C@H](COP(=O)(O)OP(=O)(O)OC[C@H]3O[C@@H](n4cnc5c(N)ncnc54)[C@H](F)[C@@H]3O)[C@@H](O)[C@H]2O)n1` [Compound 3, P^1-(Tiazofurin-5'-yl)-P^2-(2'-deoxy-2'-fluoroadenosin 5'-yl)pyrophosphate]: the Ki at Human IMPDH type II (setting [8]) was 0.5 µM; on Human IMPDH type II (setting [9]), 0.5 ± 0.1 µM; at Human IMPDH type II (setting [10]) it was 6 ± 12 µM; in [7] it was 100 µM.

Consider `NC(=O)c1csc([C@@H]2O[C@H](COP(=O)(O)OP(=O)(O)OC[C@H]3O[C@@H](n4cnc5c(N)ncnc54)[C@H](O)[C@@H]3F)[C@@H](O)[C@H]2O)n1` [Compound 4, P^1-(Tiazofurin-5'-yl)-P^2-(3'-deoxy-3'-fluoroadenosin-5'-yl)pyrophosphate], for which the Ki at Human IMPDH type II (setting [8]) came to 0.7 µM; at Human IMPDH type II (setting [9]) it was 0.7 ± 0.1 µM; at Human IMPDH type II (setting [10]), 1.5 ± 0.6 µM; in data set [7], 100 µM.

`NC(=O)c1csc([C@@H]2O[C@H](COP(=O)(O)C(F)(F)P(=O)(O)OC[C@H]3O[C@@H](n4cnc5c(N)ncnc54)[C@H](O)[C@@H]3O)[C@@H](O)[C@H]2O)n1` [β-CF2 -TAD, β-difluoromethylene TAD]: the Ki on Human IMPDH type II (IMPDH type II, read-out: Ki) worked out at 0.17 µM; on Human IMPDH type II (setting [9]), 0.17 ± 0.03 µM; on Human IMPDH type II (setting [10]), 0.3 ± 0.2 µM. For the same molecule, the “penetration of cell membranes” value in the data set with cell membranes is given as “can penetrate cell membranes although not as efficiently as tiazofurin”.

With `NC(=O)c1csc([C@@H]2O[C@H](COP(=O)(O)OP(=O)(O)OC[C@H]3O[C@@H](n4cnc5c(N)ncnc54)[C@@H](F)[C@@H]3O)[C@@H](O)[C@H]2O)n1` [Compound 5], the Ki on Human IMPDH type II (setting [8]) is 2.9 µM; on Human IMPDH type II (setting [9]) it was 2.9 ± 0.5 µM; on Human IMPDH type II (setting [10]) it was 13 µM; in [7], more than 10000 µM.

On to `NC(=O)c1cccc([C@@H]2O[C@H](COP(=O)(O)OP(=O)(O)OC[C@H]3O[C@@H](n4cnc5c(N)ncnc54)[C@H](O)[C@@H]3O)[C@@H](O)[C@H]2O)n1` [C-PAD, 6-(β-D-ribofuranosyl)picolinamide-(5'-5")adenosine pyrophosphate], for which the “pattern of inhibition of ADH with respect to NAD” value in data set [2] is “competitive”. In addition, in [2] (competitive, read-out: Ki, inhibition of ADH with respect to NAD), the Ki is 20 µM.

The values above are taken from patent US5658890A, “C-nucleoside isostere of nicotinamide adenine dinucleotide, analogs thereof and use as anti-cancer agent” (Sloan-Kettering Institute for Cancer Research, priority 1995, dated 1997).
